The results in this text go back to ChEMBL document CHEMBL5390322, “Discovery of 5-Azaquinoxaline Derivatives as Potent and Orally Bioavailable Allosteric SHP2 Inhibitors” (ACS Med Chem Lett, 2023).

What is called IC50 is the concentration needed to halve the response being measured. The solubility is how much of the substance goes into solution per volume. Read a high solubility as much dissolved substance.

SMILES strings stand for the structures. ≈ marks a conversion by molar mass, not a printed value.

System in one series: not listed separately
Put plainly: Metabolic stability in human liver microsome assessed as intrinsic clearance at […] preincubated for 5 mins followed by NADPH addition and measured after 20 mins by LC-MS analysis. The format is ADME. The following applies: liver microsomes, dose 2.5 µM, time 25 min, read-out: CLH.
As to `CC1(CN)CCN(c2cnc3nc(Sc4ccnc(N)c4Cl)ccc3n2)CC1`, the CLint scaled at […] stood at 5 mL/min/kg.
Turning to `COc1cccc(Sc2ccc3nc(N4CCC(C)(N)CC4)cnc3n2)c1Cl`, the CLint scaled at […] was 9 mL/min/kg.
For `COc1nccc(Sc2ccc3nc(N4CCC(C)(N)CC4)cnc3n2)c1Cl`, the CLint scaled at […] is 6 mL/min/kg.
Regarding `Nc1nccc(Sc2ccc3nc(N4CCC[C@H](N)CC4)cnc3n2)c1Cl`, the CLint scaled at […] is 4 mL/min/kg.
As for `COc1ccc2c(c1)[C@@H](N)C1(CCN(c3cnc4nc(Sc5ccnc(N)c5Cl)ccc4n3)CC1)C2`, the CLint scaled at […] is 6 mL/min/kg.

The target of a further series is T1, Tyrosine-protein phosphatase non-receptor type 11 (Homo sapiens, UniProt Q06124).
T1 sequence (Q06124 whole entry): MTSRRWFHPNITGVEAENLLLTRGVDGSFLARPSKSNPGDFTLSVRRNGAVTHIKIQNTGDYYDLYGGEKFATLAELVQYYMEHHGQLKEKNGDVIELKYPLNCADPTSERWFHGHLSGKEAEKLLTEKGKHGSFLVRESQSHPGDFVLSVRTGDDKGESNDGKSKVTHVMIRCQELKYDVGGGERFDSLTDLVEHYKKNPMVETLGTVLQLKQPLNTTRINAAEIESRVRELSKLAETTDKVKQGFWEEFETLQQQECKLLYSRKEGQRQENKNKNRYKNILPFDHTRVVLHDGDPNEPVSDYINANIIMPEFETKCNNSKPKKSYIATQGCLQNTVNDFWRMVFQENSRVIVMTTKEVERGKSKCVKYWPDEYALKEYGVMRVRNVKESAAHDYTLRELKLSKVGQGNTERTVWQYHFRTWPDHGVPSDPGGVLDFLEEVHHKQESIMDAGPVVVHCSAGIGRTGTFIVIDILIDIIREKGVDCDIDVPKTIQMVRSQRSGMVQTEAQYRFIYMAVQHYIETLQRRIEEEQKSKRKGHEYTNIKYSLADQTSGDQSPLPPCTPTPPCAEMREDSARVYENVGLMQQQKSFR
Put plainly: Allosteric inhibition of recombinant full length 6His-tagged SHP2 (2 to 527 residues) (unknown origin) expressed in Escherichia coli using DiFMUP as substrate incubated for 15 mins by microplate reader analysis.
Conditions: not given
In the case of `COc1cccc(Sc2ccc3nc(N4CCC(C)(N)CC4)cnc3n2)c1Cl`, the IC50 came out at 104 nM.
`COc1nccc(Sc2ccc3nc(N4CCC(C)(N)CC4)cnc3n2)c1Cl`: the IC50 is 355 nM.
Regarding `Nc1nccc(Sc2ccc3nc(N4CCC[C@H](N)CC4)cnc3n2)c1Cl`, the IC50 worked out at 102 nM.
As for `COc1ccc2c(c1)[C@@H](N)C1(CCN(c3cnc4nc(Sc5ccnc(N)c5Cl)ccc4n3)CC1)C2`, the IC50 was found to be 47 nM.

System in the next series: not listed separately
Briefly: Metabolic stability in human hepatocyte assessed as intrinsic clearance incubated for 1 to 2 hrs by LC-MS analysis. It is filed as ADME, cell-based. The following applies: hepatocytes, time 1-2 hrs, read-out: CLH.
As to `CC1(CN)CCN(c2cnc3nc(Sc4ccnc(N)c4Cl)ccc3n2)CC1`, the CLint scaled at 10000 µM came out at 2 mL/min/kg.
With `COc1cccc(Sc2ccc3nc(N4CCC(C)(N)CC4)cnc3n2)c1Cl`, the CLint scaled at 10000 µM was found to be 9 mL/min/kg.
Turning to `COc1nccc(Sc2ccc3nc(N4CCC(C)(N)CC4)cnc3n2)c1Cl`, the CLint scaled at 10000 µM turned out to be 2 mL/min/kg.
`Nc1nccc(Sc2ccc3nc(N4CCC[C@H](N)CC4)cnc3n2)c1Cl`: the CLint scaled at 10000 µM stood at 3 mL/min/kg.
`COc1ccc2c(c1)[C@@H](N)C1(CCN(c3cnc4nc(Sc5ccnc(N)c5Cl)ccc4n3)CC1)C2`: the CLint scaled at 10000 µM was determined as 11 mL/min/kg.

System in the next series: not listed separately
Briefly: Solubility of the compound in FaSSIF at 1 mg/ml incubated for 24 hrs by LC-MS/MS analysis. It is filed as physicochemical.
Conditions: not given
Compound `CC1(CN)CCN(c2cnc3nc(Sc4ccnc(N)c4Cl)ccc3n2)CC1` showed a solubility at 24 h of 909 µg/mL (≈ 2190 µM).

System in a further series: not listed separately
Put plainly: Metabolic stability in mouse liver microsome assessed as intrinsic clearance at […] preincubated for 5 mins followed by NADPH addition and measured after 20 mins by LC-MS analysis. The following applies: liver microsomes, dose 2.5 µM, time 25 min, read-out: CLH. The format is ADME. Background: Liver microsomes are vesicles of endoplasmic reticulum, rich in cytochrome P450 enzymes.
For `CC1(CN)CCN(c2cnc3nc(Sc4ccnc(N)c4Cl)ccc3n2)CC1`, the CLint scaled at […] was determined as 14 mL/min/kg.
Turning to `COc1cccc(Sc2ccc3nc(N4CCC(C)(N)CC4)cnc3n2)c1Cl`, the CLint scaled at […] worked out at 51 mL/min/kg.
For the compound `COc1nccc(Sc2ccc3nc(N4CCC(C)(N)CC4)cnc3n2)c1Cl`, the CLint scaled at […] worked out at 20 mL/min/kg.
Same read-out and setting: the result for `Nc1nccc(Sc2ccc3nc(N4CCC[C@H](N)CC4)cnc3n2)c1Cl` reads 19 mL/min/kg; that for `COc1ccc2c(c1)[C@@H](N)C1(CCN(c3cnc4nc(Sc5ccnc(N)c5Cl)ccc4n3)CC1)C2`, 21 mL/min/kg.

System in another series: not listed separately
Briefly: Metabolic stability in mouse hepatocyte assessed as intrinsic clearance incubated for 1 to 2 hrs by LC-MS analysis. The following applies: hepatocytes, time 1-2 hrs, read-out: CLH. The format is ADME, cell-based.
In the case of `CC1(CN)CCN(c2cnc3nc(Sc4ccnc(N)c4Cl)ccc3n2)CC1`, the CLint scaled turned out to be 16 mL/min/kg.
`COc1cccc(Sc2ccc3nc(N4CCC(C)(N)CC4)cnc3n2)c1Cl`: the CLint scaled amounted to 45 mL/min/kg.
For the compound `COc1nccc(Sc2ccc3nc(N4CCC(C)(N)CC4)cnc3n2)c1Cl`, the CLint scaled came to 7 mL/min/kg.
On the same count and under the same terms, the result for `Nc1nccc(Sc2ccc3nc(N4CCC[C@H](N)CC4)cnc3n2)c1Cl` reads 8 mL/min/kg; that for `COc1ccc2c(c1)[C@@H](N)C1(CCN(c3cnc4nc(Sc5ccnc(N)c5Cl)ccc4n3)CC1)C2`, 33 mL/min/kg.

Another series has as its target Mitogen-activated protein kinase; ERK1/ERK2 (Homo sapiens, UniProt P27361+P28482). Briefly: Inhibition of ERK1/2 phosphorylation at Thr202/Tyr204 residues in human KYSE520 cells incubated for 1 hrs by Western blot analysis. It is filed as cell-based.
Conditions: not given
In general terms: In western blotting, separated proteins are transferred to a membrane and probed.
For `CC1(CN)CCN(c2cnc3nc(Sc4ccnc(N)c4Cl)ccc3n2)CC1`, the IC50 amounted to 68 nM.
In turn, `COc1cccc(Sc2ccc3nc(N4CCC(C)(N)CC4)cnc3n2)c1Cl` had a half-inhibitory concentration (IC50) of 786 nM.
Turning to `COc1nccc(Sc2ccc3nc(N4CCC(C)(N)CC4)cnc3n2)c1Cl`, the IC50 is on record as 660 nM.
`Nc1nccc(Sc2ccc3nc(N4CCC[C@H](N)CC4)cnc3n2)c1Cl`: the IC50 is 84 nM.
As for `COc1ccc2c(c1)[C@@H](N)C1(CCN(c3cnc4nc(Sc5ccnc(N)c5Cl)ccc4n3)CC1)C2`, the IC50 is given as 29 nM.

System in the next series: not listed separately
Briefly: Permeability of compound from apical to basolateral side in LLC-PK1 cells incubated for 2 hrs by LC-MS/MS analysis. The format is ADME, cell-based, Sus scrofa. The following applies: pig, read-out: permeability.
Turning to `CC1(CN)CCN(c2cnc3nc(Sc4ccnc(N)c4Cl)ccc3n2)CC1`, the Papp A→B at 2 h came out at 10 ×10⁻⁶ cm/s.
As for `COc1nccc(Sc2ccc3nc(N4CCC(C)(N)CC4)cnc3n2)c1Cl`, the Papp A→B at 2 h was determined as 12 ×10⁻⁶ cm/s.
As for `Nc1nccc(Sc2ccc3nc(N4CCC[C@H](N)CC4)cnc3n2)c1Cl`, the Papp A→B at 2 h turned out to be 1 ×10⁻⁶ cm/s.
